Experiment: xn = mol fraction of the nth substance listed
Conditions: 101 kPa, Liquid; for electrical conductivity: Crison conductimeter (model GLP31); for speed of sound: Pulse-echo method; for mass density: Vibrating tube method

CCC[n+]1ccccc1.F[B-](F)(F)F [1-propylpyridinium tetrafluoroborate] + CO
Conditions	electrical conductivity [S/m]	mass density [kg/m3]	speed of sound [m/s]	viscosity [mPa·s]
313.15 K, x1 = 0.028	–	829.037	1104.3	–
313.15 K, x1 = 0.0313	3.41	–	–	–
313.15 K, x1 = 0.0365	3.77	–	–	–
313.15 K, x1 = 0.0422	4.13	–	–	–
313.15 K, x1 = 0.0505	–	–	–	0.7578
313.15 K, x1 = 0.0577	–	876.892	1151.5	–
313.15 K, x1 = 0.0658	4.95	–	–	–
313.15 K, x1 = 0.0775	5.27	–	–	–
313.15 K, x1 = 0.0894	5.59	–	–	–
313.15 K, x1 = 0.0967	–	927.831	1204.8	–
313.15 K, x1 = 0.0993	–	–	–	1.273
313.15 K, x1 = 0.1294	6.03	–	–	–
313.15 K, x1 = 0.1409	6.12	–	–	–
313.15 K, x1 = 0.1459	–	979.474	1261.3	–
313.15 K, x1 = 0.1703	6.3	–	–	–
313.15 K, x1 = 0.191	–	–	–	2.523
313.15 K, x1 = 0.1952	–	1020.19	1314.3	–
313.15 K, x1 = 0.2002	6.26	–	–	–
313.15 K, x1 = 0.2456	6.05	–	–	–
313.15 K, x1 = 0.2819	5.68	–	–	–
313.15 K, x1 = 0.291	–	–	–	4.303
313.15 K, x1 = 0.3213	–	1094.6	1409.3	–
313.15 K, x1 = 0.3507	5.15	–	–	–
313.15 K, x1 = 0.3918	–	–	–	6.052
313.15 K, x1 = 0.3937	4.76	–	–	–
313.15 K, x1 = 0.4002	–	1127.34	1453.2	–
313.15 K, x1 = 0.4334	4.32	–	–	–
313.15 K, x1 = 0.464	3.91	–	–	–
313.15 K, x1 = 0.4929	–	–	–	8.501
313.15 K, x1 = 0.4965	–	1157.84	1492.7	–
313.15 K, x1 = 0.5398	3.26	–	–	–
313.15 K, x1 = 0.5988	–	1183.22	1527.3	–
313.15 K, x1 = 0.6117	–	–	–	12.48
313.15 K, x1 = 0.635	2.5	–	–	–
313.15 K, x1 = 0.6904	–	1201.32	1550.3	–
313.15 K, x1 = 0.7331	–	–	–	20
313.15 K, x1 = 0.7918	1.5	–	–	–
313.15 K, x1 = 0.7923	–	–	–	25.3
313.15 K, x1 = 0.8011	–	1218.9	1573.6	–
313.15 K, x1 = 0.8425	–	–	–	31.76
313.15 K, x1 = 0.8824	–	1229.83	1589.4	–
313.15 K, x1 = 0.894	1.05	–	–	–
313.15 K, x1 = 0.8956	–	–	–	38.87
313.15 K, x1 = 0.9384	0.94	–	–	–
313.15 K, x1 = 0.94	–	1236.33	1598.5	–
313.15 K, x1 = 0.9447	–	–	–	46.64
313.15 K, x1 = 1	0.799	1242.43	1606.3	56.02
323.15 K, x1 = 0.028	–	820.035	1073.8	–
323.15 K, x1 = 0.0313	3.87	–	–	–
323.15 K, x1 = 0.0365	4.25	–	–	–
323.15 K, x1 = 0.0422	4.68	–	–	–
323.15 K, x1 = 0.0505	–	–	–	0.673
323.15 K, x1 = 0.0577	–	867.868	1123.5	–
323.15 K, x1 = 0.0658	5.62	–	–	–
323.15 K, x1 = 0.0775	6	–	–	–
323.15 K, x1 = 0.0894	6.37	–	–	–
323.15 K, x1 = 0.0967	–	918.92	1178.7	–
323.15 K, x1 = 0.0993	–	–	–	1.009
323.15 K, x1 = 0.1294	6.98	–	–	–
323.15 K, x1 = 0.1409	7.05	–	–	–
323.15 K, x1 = 0.1459	–	970.736	1237	–
323.15 K, x1 = 0.1703	7.23	–	–	–
323.15 K, x1 = 0.191	–	–	–	1.915
323.15 K, x1 = 0.1952	–	1011.68	1291	–
323.15 K, x1 = 0.2002	7.2	–	–	–
323.15 K, x1 = 0.2456	7	–	–	–
323.15 K, x1 = 0.2819	6.64	–	–	–
323.15 K, x1 = 0.291	–	–	–	3.255
323.15 K, x1 = 0.3213	–	1086.6	1385.4	–
323.15 K, x1 = 0.3507	6.05	–	–	–
323.15 K, x1 = 0.3918	–	–	–	4.475
323.15 K, x1 = 0.3937	5.63	–	–	–
323.15 K, x1 = 0.4002	–	1119.59	1429.5	–
323.15 K, x1 = 0.4334	5.12	–	–	–
323.15 K, x1 = 0.464	4.78	–	–	–
323.15 K, x1 = 0.4929	–	–	–	6.13
323.15 K, x1 = 0.4965	–	1150.3	1467.3	–
323.15 K, x1 = 0.5398	3.97	–	–	–
323.15 K, x1 = 0.5988	–	1175.76	1503.9	–
323.15 K, x1 = 0.6117	–	–	–	8.91
323.15 K, x1 = 0.635	3.15	–	–	–
323.15 K, x1 = 0.6904	–	1193.84	1527.1	–
323.15 K, x1 = 0.7331	–	–	–	14.27
323.15 K, x1 = 0.7918	1.96	–	–	–
323.15 K, x1 = 0.7923	–	–	–	18.12
323.15 K, x1 = 0.8011	–	1211.54	1550.5	–
323.15 K, x1 = 0.8425	–	–	–	22.39
323.15 K, x1 = 0.8824	–	1222.55	1566.5	–
323.15 K, x1 = 0.894	1.48	–	–	–
323.15 K, x1 = 0.8956	–	–	–	26.94
323.15 K, x1 = 0.9384	1.34	–	–	–
323.15 K, x1 = 0.94	–	1229.15	1575	–
323.15 K, x1 = 0.9447	–	–	–	31.72
323.15 K, x1 = 1	1.15	1235.31	1583.3	36.99
